The results in this text go back to patent US10774071B2, “PD-1/PD-L1 inhibitors” (Gilead Sciences, Inc., priority 2018, dated 2020).

By IC50 is commonly meant the midpoint of a concentration-inhibition curve. The AC50 is the concentration giving half of the maximal activity seen.

One assay concerns the target PD-1/PD-L1 (Homo sapiens (Human), UniProt Q9NZQ7). The assay is described as follows: PD-1/PD-L1 biochemical protein-protein interaction assay (ALPHA). Format: binding. The following applies: 0.3 nM His tagged PD-L1, 2.5 nM biotinylated Fc-PD-1, Table 3B, read-out: IC50 PD-L1-PD1.
The target of another assay is PD-L1 (Homo sapiens (Human), UniProt Q9NZQ7). Kind of assay: PD-L1/PD-L1 dimerization biochemical protein-protein interaction assay (ALPHA). Format: binding. Particulars: 0.5 nM His tagged PD-L1 and 0.5 nM FLAG tagged PD-L1, Table 4B, read-out: AC50 PDL1 Dimer 1 nM.
Sequence of PD-L1 (Q9NZQ7 19-238): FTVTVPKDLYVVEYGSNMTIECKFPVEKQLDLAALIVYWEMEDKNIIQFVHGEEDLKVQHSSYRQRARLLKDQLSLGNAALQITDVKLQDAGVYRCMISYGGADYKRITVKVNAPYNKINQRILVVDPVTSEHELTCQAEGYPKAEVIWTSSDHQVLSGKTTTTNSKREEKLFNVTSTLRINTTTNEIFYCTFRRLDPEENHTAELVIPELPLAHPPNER
Sequence of PD-L1 (Q9NZQ7 19-238): as above

Structures are written as SMILES.

Sequence of PD-1/PD-L1 (Q9NZQ7 19-238): as above

For `COc1cc(O[C@H]2CCc3c(-c4cccc(-c5ccc(CNC[C@@H]6CCC(=O)N6)c(OC)n5)c4Cl)cccc32)c(C(F)(F)F)cc1CNC[C@@H](O)CC(=O)O` [B-222], the IC50 on PD-1/PD-L1 worked out at 0.064 nM. On PD-L1, the AC50 came out at 13.5 nM.
The like results for `COc1cc(O[C@H]2CCc3c(-c4cccc(-c5ccc(CNC[C@@H]6CCC(=O)N6)c(OC)n5)c4Cl)cccc32)c(C(F)(F)F)cc1CN1CCC[C@@]1(C)C(=O)O` [B-223] were, in that order, 0.064 nM and 18 nM.
Turning to `COc1cc(O[C@H]2CCc3c(-c4cccc(-c5ccc(CNC[C@@H]6CCC(=O)N6)c(OC)n5)c4Cl)cccc32)c(C(F)(F)F)cc1CN1CC2CCC1C(C(=O)O)C2` (stereo partly shown) [B-224], at PD-1/PD-L1, the concentration for half-maximal inhibition (IC50) worked out at 0.064 nM. Also, the concentration at half-maximal activity (AC50) at PD-L1 was found to be 10.6 nM.
For the molecule `COc1nc(O[C@H]2CCc3c(-c4cccc(-c5cnc(CNC[C@@H]6CCC(=O)N6)c(OC)n5)c4Cl)cccc32)c(C(F)(F)F)cc1CNC1(C(=O)O)CC1` [B-225], the half-inhibitory concentration (IC50) on PD-1/PD-L1 came out at 0.064 nM. Also, the AC50 on PD-L1 is 5.32 nM.
For `COc1nc(-c2cccc(-c3cccc4c3CC[C@@H]4Oc3nc(OC)c(CN4CC5CCC4(C(=O)O)CC5)cc3C(F)(F)F)c2Cl)ccc1CN1CC2(CCC(=O)N2)C1` [B-226] the same measures were 0.064 nM and 5.33 nM.
For `COc1nc(-c2cccc(-c3cccc4c3CC[C@@H]4Oc3nc(OC)c(CN4C5CCC4(C(=O)O)CC5)cc3C(F)(F)F)c2Cl)ccc1CN1CC2(CCC(=O)N2)C1` [B-227] the same measures were 0.064 nM and 3.12 nM.
For `COc1nc(-c2cccc(-c3cccc4c3CC[C@@H]4Oc3nc(OC)c(CN4CCC5CC4(C(=O)O)C5)cc3C(F)(F)F)c2Cl)ccc1CN1CC2(CCC(=O)N2)C1` [B-228] the same measures were 0.064 nM and 6.43 nM.
Take `COc1nc(-c2cccc(-c3cccc4c3CC[C@@H]4Oc3nc(OC)c(CNC4(C(=O)O)CCC4)cc3C(F)(F)F)c2Cl)ccc1CNC[C@@H]1CCC(=O)N1` [B-229]: the IC50 on PD-1/PD-L1 amounted to 0.064 nM. At PD-L1, the concentration at half-maximal activity (AC50) was determined as 3.14 nM.
For `COc1nc(-c2cccc(-c3cccc4c3CC[C@@H]4Oc3nc(OC)c(CN[C@]4(C(=O)O)C[C@H](F)C4)cc3C(F)(F)F)c2Cl)ccc1CNC[C@@H]1CCC(=O)N1` [B-230] the same measures were 0.064 nM and 27.5 nM.
For `COc1nc(-c2cccc(-c3cccc4c3CC[C@@H]4Oc3nc(OC)c(CN4CC5CCC4(C(=O)O)CC5)cc3Cl)c2Cl)ccc1CNC[C@@H]1CCC(=O)N1` [B-231] the same measures were 0.064 nM and 12 nM.
The like results for `COc1nc(-c2cccc(-c3cccc4c3CC[C@@H]4Oc3nc(OC)c(CN4C5CCC4(C(=O)O)CC5)cc3C(F)(F)F)c2Cl)ccc1CNC[C@@H]1CCC(=O)N1` [B-232] were, in that order, 0.064 nM and 1.79 nM.
Take `COc1nc(-c2cccc(-c3cccc4c3CC[C@@H]4Oc3nc(OC)c(CN4CCC5CC4(C(=O)O)C5)cc3C(F)(F)F)c2Cl)ccc1CNC[C@@H]1CCC(=O)N1` [B-233]: the IC50 on PD-1/PD-L1 turned out to be 0.064 nM. Moreover, at PD-L1, the AC50 is 0.518 nM.
For the molecule `COc1nc(-c2cccc(-c3cccc4c3CC[C@@H]4Oc3nc(OC)c(CN4C[C@H]5C[C@H]5[C@H]4C(=O)O)cc3C(F)(F)F)c2Cl)ccc1CNC[C@@H]1CCC(=O)N1` [B-234], on PD-1/PD-L1, the IC50 is 0.064 nM. Also, on PD-L1, the AC50 was 3.18 nM.
For `CC[C@@](C)(NCc1cc(C(F)(F)F)c(O[C@H]2CCc3c(-c4cccc(-c5ccc(CNC[C@@H]6CCC(=O)N6)c(OC)n5)c4Cl)cccc32)nc1OC)C(=O)O` [B-235] the same measures were 0.064 nM and 2.42 nM.
The like results for `CC[C@](C)(NCc1cc(C(F)(F)F)c(O[C@H]2CCc3c(-c4cccc(-c5ccc(CNC[C@@H]6CCC(=O)N6)c(OC)n5)c4Cl)cccc32)nc1OC)C(=O)O` [B-236] were, in that order, 0.064 nM and 3.02 nM.
The like results for `COc1nc(-c2cccc(-c3cccc4c3CC[C@@H]4Oc3nc(OC)c(CN4CCC[C@@]4(C)C(=O)O)cc3C)c2Cl)ccc1CNC[C@@H]1CCC(=O)N1` [B-237] were, in that order, 0.064 nM and 20.7 nM.
For the molecule `COc1nc(-c2cccc(-c3cccc4c3CC[C@@H]4Oc3nc(OC)c(CN4CCC[C@]4(C)C(=O)O)cc3C)c2Cl)ccc1CNC[C@@H]1CCC(=O)N1` [B-238], the IC50 on PD-1/PD-L1 stood at 0.064 nM. The AC50 at PD-L1 turned out to be 34.9 nM.
Turning to `COc1nc(-c2cccc(-c3cccc4c3CC[C@@H]4Oc3nc(OC)c(CNCC(=O)O)cc3C)c2Cl)ccc1CNC[C@@H]1CCC(=O)N1` [B-239], the concentration for half-maximal inhibition (IC50) at PD-1/PD-L1 was determined as 0.064 nM. Besides, the AC50 on PD-L1 is 21.3 nM.
As to `COc1nc(-c2cccc(-c3cccc4c3CC[C@@H]4Oc3nc(OC)c(CNC(C)(CO)C(=O)O)cc3C)c2Cl)ccc1CNC[C@@H]1CCC(=O)N1` (stereo partly shown) [B-240], the IC50 on PD-1/PD-L1 came out at 0.064 nM. On PD-L1, the half-maximal activity concentration (AC50) was 12.1 nM.
The like results for `COc1nc(-c2cccc(-c3cccc4c3CC[C@@H]4Oc3nc(OC)c(CN[C@@H](C)C(=O)O)cc3C)c2Cl)ccc1CNC[C@@H]1CCC(=O)N1` [B-241] were, in that order, 0.064 nM and 7.58 nM.
With `COc1nc(-c2cccc(-c3cccc4c3CC[C@@H]4Oc3nc(OC)c(CN[C@H](C)C(=O)O)cc3C)c2Cl)ccc1CNC[C@@H]1CCC(=O)N1` [B-242], the half-inhibitory concentration (IC50) at PD-1/PD-L1 came to 0.064 nM. Also, the AC50 on PD-L1 amounted to 18.9 nM.
Turning to `COc1nc(O[C@H]2CCc3c(-c4cccc(-c5cc(C)c(CNC[C@@H]6CCC(=O)N6)c(OC)n5)c4Cl)cccc32)c(C)cc1CNC(C)(C)C(=O)O` [B-243], the IC50 at PD-1/PD-L1 was 0.064 nM. For the same molecule, the AC50 at PD-L1 turned out to be 15.8 nM.
The like results for `COc1nc(O[C@H]2CCc3c(-c4cccc(-c5cc(C)c(CNC[C@@H]6CCC(=O)N6)c(OC)n5)c4Cl)cccc32)c(C)cc1CNC1(C(=O)O)CC1` [B-244] were, in that order, 0.064 nM and 18 nM.
On to `COc1nc(-c2cccc(-c3cccc4c3CC[C@@H]4Oc3nc(OC)c(CNC(C)(C)C(=O)O)cc3C)c2Cl)ccc1CNC[C@@H]1CCC(=O)N1` [B-245], for which the IC50 on PD-1/PD-L1 came to 0.064 nM. Moreover, on PD-L1, the AC50 was determined as 5.94 nM.
For `COc1nc(-c2cccc(-c3cccc4c3CC[C@@H]4Oc3nc(OC)c(CNC4(C(=O)O)CC4)cc3C)c2Cl)ccc1CNC[C@@H]1CCC(=O)N1` [B-246] the same measures were 0.064 nM and 14 nM.
For the molecule `COc1nc(-c2cccc(-c3cccc4c3CC[C@@H]4Oc3nc(OC)c(CNC4(C(=O)O)CC4)nc3C(F)(F)F)c2Cl)ccc1CNC[C@@H]1CCC(=O)N1` [B-247], at PD-1/PD-L1, the concentration for half-maximal inhibition (IC50) turned out to be 0.064 nM. The AC50 at PD-L1 worked out at 10.4 nM.
The like results for `COc1nc(-c2cccc(-c3cccc4c3CC[C@@H]4Oc3nc(OC)c(CNCC(=O)N(C)C)cc3C(F)(F)F)c2Cl)ccc1CNC[C@@H]1CCC(=O)N1` [B-248] were, in that order, 0.097 nM and 15.9 nM.
The like results for `CNC(=O)[C@H](C)NCc1cc(C(F)(F)F)c(O[C@H]2CCc3c(-c4cccc(-c5ccc(CNC[C@@H]6CCC(=O)N6)c(OC)n5)c4Cl)cccc32)nc1OC` [B-249] were, in that order, 0.065 nM and 35.5 nM.
`CNC(=O)CNCc1cc(C(F)(F)F)c(O[C@H]2CCc3c(-c4cccc(-c5ccc(CNC[C@@H]6CCC(=O)N6)c(OC)n5)c4Cl)cccc32)nc1OC` [B-250]: the half-maximal inhibitory concentration (IC50) at PD-1/PD-L1 is 0.237 nM. Further, the half-maximal activity concentration (AC50) on PD-L1 was 36.4 nM.
Regarding `COc1nc(-c2cccc(-c3cccc4c3CC[C@@H]4Oc3nc(OC)c(CNCC4(C(=O)O)CC4)cc3C(F)(F)F)c2Cl)ccc1CN[C@H]1C[C@](C)(O)C1` [B-251], the IC50 on PD-1/PD-L1 is 0.064 nM. Moreover, on PD-L1, the AC50 came out at 17.7 nM.
The like results for `COc1nc(-c2cccc(-c3cccc4c3CC[C@@H]4Oc3nc(OC)c(CNCC(C)(C)C(=O)O)cc3C(F)(F)F)c2Cl)ccc1CN[C@H]1C[C@](C)(O)C1` [B-252] were, in that order, 0.064 nM and 18 nM.
For `COc1nc(-c2cccc(-c3cccc4c3CC[C@@H]4Oc3nc(OC)c(CN[C@H](C)CC(=O)O)cc3C(F)(F)F)c2Cl)ccc1CN[C@H]1C[C@](C)(O)C1` [B-253] the same measures were 0.064 nM and 8.73 nM.
With `COc1nc(-c2cccc(-c3cccc4c3CC[C@@H]4Oc3nc(OC)c(CNCCC(=O)O)cc3C(F)(F)F)c2Cl)ccc1CN[C@H]1C[C@](C)(O)C1` [B-254], the half-inhibitory concentration (IC50) at PD-1/PD-L1 came to 0.064 nM. Also, on PD-L1, the AC50 was 11.4 nM.
The like results for `COc1nc(-c2cccc(-c3cccc4c3CC[C@@H]4Oc3nc(OC)c(CN[C@H](C(=O)O)C4CC4)cc3C(F)(F)F)c2Cl)ccc1CN[C@H]1C[C@](C)(O)C1` [B-255] were, in that order, 0.064 nM and 7.89 nM.
The like results for `COC[C@H](NCc1cc(C(F)(F)F)c(O[C@H]2CCc3c(-c4cccc(-c5ccc(CN[C@H]6C[C@](C)(O)C6)c(OC)n5)c4Cl)cccc32)nc1OC)C(=O)O` [B-256] were, in that order, 0.064 nM and 13.1 nM.
The like results for `COc1nc(-c2cccc(-c3cccc4c3CC[C@@H]4Oc3nc(OC)c(CN(C)[C@@H](C)C(=O)O)cc3C(F)(F)F)c2Cl)ccc1CNC[C@@H]1CCC(=O)N1` [B-257] were, in that order, 0.064 nM and 8.73 nM.
Turning to `COc1nc(-c2cccc(-c3cccc4c3CC[C@@H]4Oc3nc(OC)c(CN(C)CC(=O)O)cc3C(F)(F)F)c2Cl)ccc1CNC[C@@H]1CCC(=O)N1` [B-258], the half-maximal inhibitory concentration (IC50) at PD-1/PD-L1 amounted to 0.064 nM. The AC50 on PD-L1 turned out to be 5.9 nM.
For `COc1nc(-c2cccc(-c3cccc4c3CC[C@@H]4Oc3nc(OC)c(CN4CC(C)(O)C4)cc3C(F)(F)F)c2Cl)ccc1CNC[C@@H]1CCC(=O)N1` [B-260] the same measures were 0.064 nM and 18 nM.
The like results for `COc1nc(-c2cccc(-c3cccc4c3CC[C@@H]4Oc3nc(OC)c(CNC[C@H]4C[C@](C)(O)C4)cc3C(F)(F)F)c2Cl)ccc1CNC[C@@H]1CCC(=O)N1` [B-261] were, in that order, 0.076 nM and 4.63 nM.
The like results for `COc1nc(-c2cccc(-c3cccc4c3CC[C@@H]4Oc3nc(OC)c(CNC[C@H]4C[C@H](O)C4)cc3C(F)(F)F)c2Cl)ccc1CNC[C@@H]1CCC(=O)N1` [B-262] were, in that order, 0.064 nM and 2.2 nM.
As for `COc1nc(-c2cccc(-c3cccc4c3CC[C@@H]4Oc3nc(OC)c(CN[C@H]4C[C@](C)(O)C4)cc3C(F)(F)F)c2Cl)ccc1CNC[C@@H]1CCC(=O)N1` [B-263], at PD-1/PD-L1, the IC50 turned out to be 0.064 nM. On PD-L1, the AC50 was determined as 4.94 nM.
